# Non-standard residues stand in square brackets, D forms with d. Residues, ends and D or L forms follow the SMILES beside them. *: point of attachment. pY = N[C@@H](Cc1ccc(OP(=O)(O)O)cc1)C(=O)O; Caffeoyl = O=C(/C=C/c1ccc(O)c(O)c1)*
# Tests used:
# CBL = target: T1, CBL (Homo sapiens, UniProt P22681); test: biochemical; format: binding
# T1 construct: the DNA-tagged SH2 domain concentrations used in this study were <0.1 nM; made in house; host or cells: HEK293 (transient transfection; unpurified extract)
# T1 sequence (P22681 249-351 limits assumed): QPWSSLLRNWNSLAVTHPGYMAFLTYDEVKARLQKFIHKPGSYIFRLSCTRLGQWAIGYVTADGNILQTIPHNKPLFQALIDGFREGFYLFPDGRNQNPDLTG
# ZAP70(SH2dom1.dom2.) = target: T2, ZAP70(SH2dom1.dom2.) (Homo sapiens, UniProt P43403); conditions: primary screen, 10 μM
# T2 sequence (P43403 1-254 limits assumed): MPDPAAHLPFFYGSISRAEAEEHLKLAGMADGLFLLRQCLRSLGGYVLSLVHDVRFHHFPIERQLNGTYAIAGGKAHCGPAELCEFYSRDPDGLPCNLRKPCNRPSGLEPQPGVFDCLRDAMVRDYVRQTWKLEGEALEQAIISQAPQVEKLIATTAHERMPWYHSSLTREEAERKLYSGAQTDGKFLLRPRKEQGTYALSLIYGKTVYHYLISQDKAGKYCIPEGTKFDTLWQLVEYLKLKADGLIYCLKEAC
# FYN = system: FYN; design: method as in Gay et al., International Journal of Cancer, 1999; conditions: ELISA; ref Gay et al., International Journal of Cancer, 1999; cited from earlier work
# GRB2 = system: GRB2; design: method as in Gay et al., International Journal of Cancer, 1999; conditions: ELISA; ref Gay et al., International Journal of Cancer, 1999; cited from earlier work
# PIK3R1 (SH2dom.N-term.) = system: PIK3R1 (SH2dom.N-term.); design: method as in Gay et al., International Journal of Cancer, 1999; conditions: ELISA; ref Gay et al., International Journal of Cancer, 1999; cited from earlier work
# PTPN11 (SH2dom.C-term.) = system: PTPN11 (SH2dom.C-term.); design: method as in Gay et al., International Journal of Cancer, 1999; conditions: ELISA; ref Gay et al., International Journal of Cancer, 1999; cited from earlier work
# PTPN11 (SH2dom.N-term.) = system: PTPN11 (SH2dom.N-term.); design: method as in Gay et al., International Journal of Cancer, 1999; conditions: ELISA; ref Gay et al., International Journal of Cancer, 1999; cited from earlier work
# SOCS2 = target: SOCS2; design: method as in Ramachandran et al., Nature Communications, 2023; conditions: ITC; ref Ramachandran et al., Nature Communications, 2023; cited from earlier work
# STAT1 = target: STAT1; design: method as in Bai et al., Cancer Cell, 2019; conditions: FP and BLI; ref Bai et al., Cancer Cell, 2019; cited from earlier work
# STAT2 = target: STAT2; design: method as in Bai et al., Cancer Cell, 2019; conditions: FP and BLI; ref Bai et al., Cancer Cell, 2019; cited from earlier work
# STAT3 = target: STAT3; design: method as in Bai et al., Cancer Cell, 2019; conditions: FP and BLI; ref Bai et al., Cancer Cell, 2019; cited from earlier work
# STAT4 [1] = target: STAT4; design: method as in Bai et al., Cancer Cell, 2019; conditions: FP and BLI; ref Bai et al., Cancer Cell, 2019; cited from earlier work
# STAT5A = target: STAT5A; design: method as in Bai et al., Cancer Cell, 2019; conditions: FP and BLI; ref Bai et al., Cancer Cell, 2019; cited from earlier work
# STAT5B [2] = target: STAT5B; design: method as in Bai et al., Cancer Cell, 2019; conditions: FP and BLI; ref Bai et al., Cancer Cell, 2019; cited from earlier work
# STAT6 [3] = target: STAT6; design: method as in Bai et al., Cancer Cell, 2019; conditions: FP and BLI; ref Bai et al., Cancer Cell, 2019; cited from earlier work
# STAT6 [4] = system: STAT6; design: method as in Mandal et al., Journal of Medicinal Chemistry, 2015; conditions: FP; ref Mandal et al., Journal of Medicinal Chemistry, 2015; cited from earlier work
# STAT4 [5] = target: STAT4; design: method as in earlier work; conditions: FP; ref Elumalai et al., Angewandte Chemie International Edition, 2015; cited from earlier work
# STAT5B [6] = target: STAT5B; design: method as in earlier work; conditions: FP; ref Elumalai et al., Angewandte Chemie International Edition, 2015; cited from earlier work
# STAT6 [7] = target: STAT6; design: method as in earlier work; conditions: FP; ref Elumalai et al., Angewandte Chemie International Edition, 2015; cited from earlier work
smiles,measurement,setting,value
CC[C@H](C)[C@H](NC(=O)[C@H](CCC(=O)O)NC(=O)[C@H](CCC(=O)O)NC(=O)[C@H](Cc1ccc(OP(=O)(O)O)cc1)NC(C)=O)C(=O)N[C@@H](CCC(=O)O)C(N)=O [Ac-pYEEIE-NH2] (Ac-[pY]EEIE-NH2),percent of DMSO vehicle control,"CBL; primary screen, 10 μM",121.6%
same,percent of DMSO vehicle control,ZAP70(SH2dom1.dom2.),134.0%
CC(=O)N[C@@H](Cc1ccc(CP(=O)(O)O)cc1)C(=O)NC1(C(=O)N[C@@H](CC(N)=O)C(=O)NCCCc2c(O)ccc3ccccc23)CCCCC1 [CGP78850],IC50,FYN,> 50 µM
same,IC50,GRB2,0.04 µM
same,IC50,PIK3R1 (SH2dom.N-term.),> 50 µM
same,IC50,PTPN11 (SH2dom.C-term.),> 50 µM
same,IC50,PTPN11 (SH2dom.N-term.),> 50 µM
CC[C@H](C)[C@H](NC(=O)[C@H](CCC(=O)O)NC(=O)[C@H](CCC(=O)O)NC(=O)[C@H](Cc1ccc(OP(=O)(O)O)cc1)NC(=O)/C=C/c1ccc(O)c(O)c1)C(=O)N[C@@H](CCC(=O)O)C(=O)O [Caffeic acid-pYEEIE] (Caffeoyl-[pY]EEIE-OH),Kd,CBL,11 µM
O=C(CCl)Nc1cccc(CNC(=O)[C@H](Cc2ccc(OP(=O)(O)O)cc2)NC(=O)Cc2ccc(F)cc2)c1 [MN551],Kd,SOCS2,2.18 µM
NC(=O)CC[C@H](NC(=O)[C@@H]1CC[C@@H]2CCN(C(=O)CCCCCC#Cc3cccc4c3CN(C3CCC(=O)NC3=O)C4=O)C[C@H](NC(=O)c3cc4cc(C(F)(F)P(=O)(O)O)ccc4[nH]3)C(=O)N21)C(=O)NC(c1ccccc1)c1ccccc1 (stereo partly drawn) [SD-36],Kd,STAT1,1.09 µM
same,Kd,STAT2,4.88 µM
same,Kd,STAT3,0.0444 µM
same,Kd,STAT4 [1],0.804 µM
same,Kd,STAT5A,6.18 µM
same,Kd,STAT5B [2],11.7 µM
same,Kd,STAT6 [3],11.3 µM
CC(=O)N1CC[C@H]2CC[C@@H](C(=O)N[C@@H](CCC(N)=O)C(=O)NC(c3ccccc3)c3ccccc3)N2C(=O)[C@@H](NC(=O)c2cc3cc(C(F)(F)P(=O)(O)O)ccc3[nH]2)C1 [SI-109],Kd,STAT1,1.27 µM
same,Kd,STAT2,6.63 µM
same,Kd,STAT3,0.0512 µM
same,Kd,STAT4 [1],1.98 µM
same,Kd,STAT6 [3],3.37 µM
C/C(=C\C(=O)N[C@H](C(=O)N1CCC[C@H]1C(=O)N(c1ccccc1)c1ccc(I)cc1)C(C)(C)C)c1ccc(OP(=O)(O)O)cc1 [STAT6-IN-1],Kd,CBL,8.1 ± 1.3 µM
same,IC50,STAT6 [4],0.028 µM
CC(C)(C)[C@H](NC(=O)/C=C/c1ccc(OP(=O)(O)O)cc1)C(=O)N1CCC[C@H]1C(=O)N(c1ccccc1)c1ccc(I)cc1 [STAT6-IN-3],IC50,STAT6 [4],0.044 µM
O=C(COc1ccc2cc(C(=O)Nc3ccccc3)ccc2c1)NCc1ccc(OP(=O)(O)O)c(OP(=O)(O)O)c1 [Stafib-1],Ki,STAT4 [5],3.29 µM
same,Ki,STAT5B [6],0.044 µM
same,Ki,STAT6 [7],3.47 µM
